From US20050267156A1, “Broadspectrum 2-amino-benzothiazole sulfonamide hiv protease inhibitors” (Tibotec Pharmaceuticals Ltd., priority 2002, published 2005)
Counter-ions that a name gives are not always drawn. Like-named read-outs stand apart in the source and are kept apart here.

Key:
HIV-1 strain LAI = assay: Cellular anti-HIV assay (MT4/MTT), wild type; assay type: cell-based; settings: MT4 cells, read-out: WT (pEC50) (converted)
Procedure: The compounds of the present invention were examined for anti-viral activity in a cellular assay. […] The cellular assay was performed according to the following procedure. HIV- or mock-infected MT4 cells were incubated for five days in the presence of various concentrations of the inhibitor. […] Cell viability is measured by measuring the concentration of MTT, a yellow, water soluble tetrazolium dye that is converted to a purple, water insoluble formazan in the mitochondria of living cells only. Upon solubilization of the resulting formazan crystals with isopropanol, the absorbance of the solution is monitored at 540 nm. The values correlate directly to the number of living cells remaining in the culture at the completion of the five-day incubation. The inhibitory activity of the compound was monitored on the virus-infected cells and was expressed as EC50 and EC90. These values represent the amount of the compound required to protect 50% and 90%, respectively, of the cells from the cytopathogenic effect of the virus. […] The selectivity index (SI) (ratio CC50/EC50) is an indication of the selectivity of the anti-HIV activity of the inhibitor. Wherever results are reported as e.g. pEC50 or pCC50 values, the result is expressed as the negative logarithm of the result expressed as EC50 or CC50 respectively.

Pharmacokinetics in rats = assay type: in vivo, Whistar rats; settings: Whistar, rat, blood, 10 mpk, read-out: Cmax
Procedure: The pharmacokinetic properties of some compounds of formula (I) were tested on rats and dogs. The compounds were evaluated in Whistar rats, source Iffa Credo, weighing approximately 350 g. Before dosing the animals were fasted overnight (approximately 12 h fasting period). The compounds were dissolved in DMSO or PEG 400. The results represented in the table concern the results from the oral or intra-peritoneal dosing of the compounds. Blood was sampled at 30 min, 1 h, 2 h, 3 h, no pre-dose sample was taken. The amount of the compound in the biological sample was determined using LC-MS. In the table below “or” means oral dosing, “ip” means intraperitoneal dosing, “mpk” means mg per kilogram.

mutant HIV strain C = assay: microbe, parasite or virus in culture; assay type: cell-based; settings: for fold resistance Strain C: FR=EC50 (mutant strain)/EC50 (HIV-1 strain LAI); for EC50: Human immunodeficiency virus 1, MT4, read-out: pEC50 Strain C, mutant HIV strain C, MT4 cells (converted)
Procedure: (§1) HIV- or mock-infected MT4 cells were incubated for five days in the presence of various concentrations of the inhibitor. […] Cell viability is measured by measuring the concentration of MTT, a yellow, water soluble tetrazolium dye that is converted to a purple, water insoluble formazan in the mitochondria of living cells only. Upon solubilization of the resulting formazan crystals with isopropanol, the absorbance of the solution is monitored at 540 nm. The values correlate directly to the number of living cells remaining in the culture at the completion of the five-day incubation. The inhibitory activity of the compound was monitored on the virus-infected cells and was expressed as EC50 and EC90. These values represent the amount of the compound required to protect 50% and 90%, respectively, of the cells from the cytopathogenic effect of the virus. […] The selectivity index (SI) (ratio CC50/EC50) is an indication of the selectivity of the anti-HIV activity of the inhibitor. Wherever results are reported as e.g. pEC50 or pCC50 values, the result is expressed as the negative logarithm of the result expressed as EC50 or CC50 respectively.

mutant HIV strain F = assay: microbe, parasite or virus in culture; assay type: cell-based; settings: for fold resistance Strain F: FR=EC50 (mutant strain)/EC50 (HIV-1 strain LAI); for EC50: Human immunodeficiency virus 1, MT4, read-out: pEC50 Strain F, mutant HIV strain F, MT4 cells (converted)
Procedure: as §1

mutant HIV strain E = assay: microbe, parasite or virus in culture; assay type: cell-based; settings: for fold resistance Strain E: FR=EC50 (mutant strain)/EC50 (HIV-1 strain LAI); for EC50: Human immunodeficiency virus 1, MT4, read-out: pEC50 Strain E, mutant HIV strain E, MT4 cells (converted)
Procedure: as §1

mutant HIV strain A = assay: microbe, parasite or virus in culture; assay type: cell-based; settings: for fold resistance Strain A: FR=EC50 (mutant strain)/EC50 (HIV-1 strain LAI); for EC50: Human immunodeficiency virus 1, MT4, read-out: pEC50 Strain A, mutant HIV strain A, MT4 cells (converted)
Procedure: as §1

mutant HIV strain D = assay: microbe, parasite or virus in culture; assay type: cell-based; settings: for fold resistance Strain D: FR=EC50 (mutant strain)/EC50 (HIV-1 strain LAI); for EC50: Human immunodeficiency virus 1, MT4, read-out: pEC50 Strain D, mutant HIV strain D, MT4 cells (converted)
Procedure: as §1

mutant HIV strain B = assay: microbe, parasite or virus in culture; assay type: cell-based; settings: for fold resistance Strain B: FR=EC50 (mutant strain)/EC50 (HIV-1 strain LAI); for EC50: Human immunodeficiency virus 1, MT4, read-out: pEC50 Strain B, mutant HIV strain B, MT4 cells (converted)
Procedure: as §1

[1] = Toxicity on mock-infected cells (MTT); assay type: cell-based; settings: human
Procedure: HIV- or mock-infected MT4 cells were incubated for five days in the presence of various concentrations of the inhibitor. At the end of the incubation period, the replicating virus in the control cultures has killed all HIV-infected cells in the absence of any inhibitor. Cell viability is measured by measuring the concentration of MTT, a yellow, water soluble tetrazolium dye that is converted to a purple, water insoluble formazan in the mitochondria of living cells only. Upon solubilization of the resulting formazan crystals with isopropanol, the absorbance of the solution is monitored at 540 nm. The values correlate directly to the number of living cells remaining in the culture at the completion of the five-day incubation. The inhibitory activity of the compound was monitored on the virus-infected cells and was expressed as EC50 and EC90. These values represent the amount of the compound required to protect 50% and 90%, respectively, of the cells from the cytopathogenic effect of the virus. […] The selectivity index (SI) (ratio CC50/EC50) is an indication of the selectivity of the anti-HIV activity of the inhibitor. Wherever results are reported as e.g. pEC50 or pCC50 values, the result is expressed as the negative logarithm of the result expressed as EC50 or CC50 respectively.

[2] = Human immunodeficiency virus 1, wild type HIV-1 strain LAI

Compound | EC50 (HIV-1 strain LAI; [2]) [nM] | Cmax (Pharmacokinetics in rats; ip, ip, DMSO, results normalized to 10 mpk) [ng/mL] | Cmax (Pharmacokinetics in rats; po, or, DMSO, results normalized to 10 mpk) [ng/mL] | Cmax (Pharmacokinetics in rats; po, or, PEG400, results normalized to 10 mpk) [ng/mL] | fold resistance Strain C (mutant HIV strain C) | EC50 (mutant HIV strain C) [nM] | fold resistance Strain F (mutant HIV strain F) | EC50 (mutant HIV strain F) [nM] | fold resistance Strain E (mutant HIV strain E) | EC50 (mutant HIV strain E) [nM] | fold resistance Strain A (mutant HIV strain A) | EC50 (mutant HIV strain A) [nM] | fold resistance Strain D (mutant HIV strain D) | EC50 (mutant HIV strain D) [nM] | fold resistance Strain B (mutant HIV strain B) | EC50 (mutant HIV strain B) [nM] | CC50 at 5 days [1] [µM] | EC50 (HIV-1 strain LAI; Human immunodeficiency virus 1, MT4, wild type HIV-1 strain LAI) [nM]
CNc1nc2ccc(S(=O)(=O)N(CC(C)C)C[C@@H](O)[C@H](Cc3ccccc3)NC(=O)OCc3cnco3)cc2s1 [Compound 28, {(1S,2R)-1-benzyl-2-hydroxy-3-[isobutyl-(2-methylamino-benzothiazole-6-sulfonyl)-amino]-propyl}-carbamic acid oxazol-5-ylmethyl ester] | 2.51 | 1000 | 540 | 430 | 2.5 | 6.17 | 30.9 | 77.6 | 2.8 | 7.08 | 7.8 | 19.5 | 14.8 | 37.2 | 2.2 | 5.62 | – | –
Cc1c(O)cccc1C(=O)N[C@@H](Cc1ccccc1)[C@H](O)CN(CC(C)C)S(=O)(=O)c1ccc2nc(N)sc2c1 [Compound 11, N-{(1S,2R)-3-[(2-amino-benzothiazole-6-sulfonyl)-isobutyl-amino]-1-benzyl-2-hydroxypropyl}-3-hydroxy-2-methyl-benzamide] | 14.5 | – | – | – | 0.5 | 7.59 | 7.1 | 102 | 0.5 | 7.24 | 7.8 | 112 | 0.6 | 8.32 | 0.5 | 7.24 | 57.5 | –
CC(C)CN(C[C@@H](O)[C@H](Cc1ccccc1)NC(=O)OCc1cncs1)S(=O)(=O)c1ccc2nc(N)sc2c1 [Compound 3, {(1S,2R)-3-[(2-amino-benzothiazole-6-sulfonyl)-isobutyl-amino]-1-benzyl-2-hydroxypropyl}-carbamic acid thiazol-5-ylmethyl ester] | 4.57 | – | – | – | 3.4 | 15.5 | 11.7 | 53.7 | 4.8 | 21.9 | 6.6 | 30.2 | 7.9 | 36.3 | 1.9 | 8.91 | 74.1 | –
Cc1c(N)cccc1C(=O)N[C@@H](Cc1ccccc1)[C@H](O)CN(CC(C)C)S(=O)(=O)c1ccc2nc(N)sc2c1 [Compound 10, 3-amino-N-{(1S,2R)-3-[(2-amino-benzothiazole-6-sulfonyl)-isobutyl-amino]-1-benzyl-2-hydroxypropyl}-2-methyl-benzamide] | 9.12 | – | – | – | 1.7 | 15.8 | 9.5 | 87.1 | 1.4 | 13.2 | 9.3 | 85.1 | 2.5 | 22.9 | 1.0 | 9.33 | 72.4 | –
Cc1cccc(C)c1OCC(=O)N[C@@H](Cc1ccccc1)[C@H](O)CN(CC(C)C)S(=O)(=O)c1ccc2nc(N)sc2c1 [Compound 8, N-{(1S,2R)-3-[(2-amino-benzothiazole-6-sulfonyl)-isobutyl-amino]-1-benzyl-2-hydroxypropyl}-2-(2,6-dimethyl-phenoxy)-acetamide] | 6.61 | – | – | – | 3.9 | 25.7 | 21.4 | 141 | 4.2 | 27.5 | 4.8 | 31.6 | 5.1 | 33.9 | 2.0 | 13.5 | > 10 | –
Cc1c(F)cccc1C(=O)N[C@@H](Cc1ccccc1)[C@H](O)CN(CC(C)C)S(=O)(=O)c1ccc2nc(N)sc2c1 [Compound 16, N-{(1S,2R)-3-[(2-amino-benzothiazole-6-sulfonyl)-isobutyl-amino]-1-benzyl-2-hydroxypropyl}-3-fluoro-2-methyl-benzamide] | 1410 | – | – | – | – | > 100000 | – | > 100000 | – | > 100000 | – | > 100000 | – | > 100000 | – | > 100000 | 11.2 | –
CNc1nc2ccc(S(=O)(=O)N(CC(C)C)C[C@@H](O)[C@H](Cc3ccccc3)NC(=O)c3cccc(N)c3C)cc2s1 [Compound 20, 3-amino-N-{(1S,2R)-1-benzyl-2-hydroxy-3-[isobutyl-(2-methylamino-benzothiazole-6-sulfonyl)-amino]-propyl}-2-methyl-benzamide trifluoroacetate] | – | – | – | – | – | 39.8 | – | 759 | – | 25.7 | – | 316 | – | 41.7 | – | 24.5 | > 100 | 4.79
CC(C)CN(C[C@@H](O)[C@H](Cc1ccccc1)NC(=O)OCc1ccccc1)S(=O)(=O)c1ccc2nc(N)sc2c1 [Compound 7, {(1S,2R)-3-[(2-amino-benzothiazole-6-sulfonyl)-isobutyl-amino]-1-benzyl-2-hydroxypropyl}-carbamic acid benzyl ester] | 5.89 | – | – | – | 5.5 | 32.4 | 131.8 | 776 | 7.4 | 43.7 | 72.4 | 427 | 20.0 | 117 | 5.0 | 29.5 | 46.8 | –
